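Cultured in 96-well plates, cells were exposed to test compound for 48 hours across five concentrations. At the GI50, growth is halved.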 The source made the active and inactive calls. No stated cut-off is given here; in the data, active = GI50 up to about 1.1 µM and inactive = higher.
Tests used:
Assay in all cases: NCI-60 cell line screen, 48 h
[1] = system: CCRF-CEM
[2] = system: DMS-114
[3] = system: HCC 2998
[4] = system: Malme-3M
[5] = system: NCI-H460
[6] = system: OVCAR-4
[7] = system: OVCAR-5
[8] = system: SF-295
[9] = system: SN12C
[10] = system: SNB-75
[11] = system: U-251
[12] = system: UACC-257
[13] = system: UO-31
[14] = system: A549
[15] = system: BT-549
[16] = system: Hs-578T
[17] = system: MCF7
[18] = system: NCI-H226
[19] = system: NCI/ADR-RES
[20] = system: SK-MEL-5

SMILES	GI50 [1]	GI50 [2]	GI50 [3]	GI50 [4]	GI50 [5]	GI50 [6]	GI50 [7]	GI50 [8]	GI50 [9]	GI50 [10]	GI50 [11]	GI50 [12]	GI50 [13]	GI50 [14]	GI50 [15]	GI50 [16]	GI50 [17]	GI50 [18]	GI50 [19]	GI50 [20]
Cc1cc2nc3c(C(OC4OC(CO)C(O)C(O)C4O)C(O)CO)nn(-c4ccccc4)c3nc2cc1C (stereo not given)	> 100 µM (inactive)	> 100 µM (inactive)	> 100 µM (inactive)	> 100 µM (inactive)	> 100 µM (inactive)	> 100 µM (inactive)	> 100 µM (inactive)	> 100 µM (inactive)	> 100 µM (inactive)	64 µM (inactive)	> 100 µM (inactive)	> 100 µM (inactive)	> 100 µM (inactive)							
C=CC(C)(C)n1cc(C2=C3OC(=O)C(c4cn(C(C)(C)C=C)c5ccccc45)=C3OC2=O)c2ccccc21	> 100 µM (inactive)		> 100 µM (inactive)	> 100 µM (inactive)	> 100 µM (inactive)	> 100 µM (inactive)	> 100 µM (inactive)	> 100 µM (inactive)	> 100 µM (inactive)	> 100 µM (inactive)	> 100 µM (inactive)	> 100 µM (inactive)	> 100 µM (inactive)	> 100 µM (inactive)	> 100 µM (inactive)	> 10 µM (inactive)	> 100 µM (inactive)	> 100 µM (inactive)	> 100 µM (inactive)	> 100 µM (inactive)
C[C@]12CC[C@H]3[C@@H](CC=C4C[C@@H](N5CCCC5)CC[C@@]43C)[C@@H]1C[C@H](N1CCCCC1)[C@@H]2O	> 100 µM (inactive)		31.6 µM (inactive)	42.5 µM (inactive)	> 100 µM (inactive)	> 100 µM (inactive)	99.8 µM (inactive)	> 100 µM (inactive)	> 100 µM (inactive)	> 100 µM (inactive)	> 100 µM (inactive)	23.3 µM (inactive)	> 100 µM (inactive)	> 100 µM (inactive)	> 100 µM (inactive)	> 100 µM (inactive)	> 100 µM (inactive)	> 100 µM (inactive)	> 100 µM (inactive)	51.1 µM (inactive)
O=C(CSc1nnc(Cc2ccccc2)o1)Nc1ccccc1Cl	> 100 µM (inactive)	> 100 µM (inactive)	> 100 µM (inactive)	> 100 µM (inactive)	> 100 µM (inactive)	> 100 µM (inactive)	> 100 µM (inactive)	> 100 µM (inactive)	> 100 µM (inactive)		> 100 µM (inactive)		> 100 µM (inactive)	> 100 µM (inactive)				> 100 µM (inactive)		> 100 µM (inactive)
CCCCCCCCCCNC(=S)OCCCC	17.1 µM (inactive)	22.9 µM (inactive)	24.6 µM (inactive)	27.7 µM (inactive)	21.9 µM (inactive)	34 µM (inactive)	11.3 µM (inactive)	45.4 µM (inactive)	19.7 µM (inactive)	36.5 µM (inactive)	19.5 µM (inactive)	23.4 µM (inactive)	23.5 µM (inactive)	26 µM (inactive)						18 µM (inactive)
COc1ccc(CN(Cc2ccc(OC)cc2)C(=O)CC2(O)C=CCC2)cc1 (stereo not given)	47.6 µM (inactive)		69.2 µM (inactive)	> 100 µM (inactive)	67.5 µM (inactive)	80 µM (inactive)	> 100 µM (inactive)	56.9 µM (inactive)	> 100 µM (inactive)	81.8 µM (inactive)	90.8 µM (inactive)	43.4 µM (inactive)	44.9 µM (inactive)	46.2 µM (inactive)	> 100 µM (inactive)	48.4 µM (inactive)	43.9 µM (inactive)	> 100 µM (inactive)	43.1 µM (inactive)	32.9 µM (inactive)
O=C(c1cccs1)N(C(=S)N1CCN(c2ccccn2)CC1)C1CCCCC1	81.1 µM (inactive)	36.9 µM (inactive)		36.3 µM (inactive)	54.6 µM (inactive)	> 100 µM (inactive)	> 100 µM (inactive)	> 100 µM (inactive)	> 100 µM (inactive)	> 100 µM (inactive)	79.1 µM (inactive)	50.9 µM (inactive)	44.4 µM (inactive)	43.7 µM (inactive)				19.5 µM (inactive)		31.3 µM (inactive)
CC(=O)Oc1cc(C)c2c(c1OC(C)=O)CC1(O2)[C@@H](C)CCC2[C@@]3(C)CC[C@H](OC(C)=O)C(C)(C)C3CC[C@]21C (stereo not given in full)		2.29 µM (inactive)	5.42 µM (inactive)	2.86 µM (inactive)	3.45 µM (inactive)	> 10 µM (inactive)	5.46 µM (inactive)	5.01 µM (inactive)	2.98 µM (inactive)	3.57 µM (inactive)	3.33 µM (inactive)	5.97 µM (inactive)	1.99 µM (inactive)	5.3 µM (inactive)				11.4 µM (inactive)		3.1 µM (inactive)
CC(=O)[C@@H](C)C(=O)N1C(=O)OC[C@@]12[C@@H]1CC[C@@H](C1)C2(C)C	> 100 µM (inactive)		> 100 µM (inactive)	> 100 µM (inactive)	> 100 µM (inactive)	> 100 µM (inactive)	> 100 µM (inactive)	> 100 µM (inactive)	> 100 µM (inactive)	> 100 µM (inactive)	> 100 µM (inactive)	> 100 µM (inactive)	> 100 µM (inactive)	> 100 µM (inactive)	> 100 µM (inactive)	> 100 µM (inactive)	> 100 µM (inactive)	> 100 µM (inactive)	> 100 µM (inactive)	> 100 µM (inactive)
N#C/N=C(\NCCc1c[nH]c2ccccc12)NCc1ccccc1	29.9 µM (inactive)	32.9 µM (inactive)	32.5 µM (inactive)		26.8 µM (inactive)	61.4 µM (inactive)	> 100 µM (inactive)	36 µM (inactive)	93.8 µM (inactive)	43.8 µM (inactive)	35.2 µM (inactive)	37 µM (inactive)	20.5 µM (inactive)	60.5 µM (inactive)				34.4 µM (inactive)		24.4 µM (inactive)
CC1(c2ccccc2)CCN(C2CC2)CO1 (stereo not given)	32.4 µM (inactive)		17.1 µM (inactive)	19.9 µM (inactive)	14.9 µM (inactive)	18.8 µM (inactive)	17.5 µM (inactive)	> 100 µM (inactive)	16.8 µM (inactive)	64.9 µM (inactive)	> 100 µM (inactive)	22.4 µM (inactive)	18.5 µM (inactive)	> 100 µM (inactive)	18.3 µM (inactive)	19.4 µM (inactive)	16.2 µM (inactive)	> 100 µM (inactive)	20.7 µM (inactive)	> 100 µM (inactive)
CCCCNC(=O)OCCN=c1c2ccccc2ccc2ccccc12	> 100 µM (inactive)		> 100 µM (inactive)	> 100 µM (inactive)	> 100 µM (inactive)	> 100 µM (inactive)	> 100 µM (inactive)	> 100 µM (inactive)	> 100 µM (inactive)	> 100 µM (inactive)	> 100 µM (inactive)	> 100 µM (inactive)	> 100 µM (inactive)	> 100 µM (inactive)	> 100 µM (inactive)	> 100 µM (inactive)	> 100 µM (inactive)	> 100 µM (inactive)	> 100 µM (inactive)	> 100 µM (inactive)
Cc1ccc(C(=O)Nc2ccc(S(=O)(=O)O)c3cc(S(=O)(=O)O)cc(S(=O)(=O)O)c23)cc1NC(=O)c1cccc(N)c1	> 100 µM (inactive)		> 100 µM (inactive)	1.05 µM (active)	> 100 µM (inactive)	> 100 µM (inactive)	> 100 µM (inactive)	> 100 µM (inactive)	> 100 µM (inactive)	> 100 µM (inactive)	> 100 µM (inactive)	> 100 µM (inactive)	> 100 µM (inactive)	> 100 µM (inactive)	> 100 µM (inactive)	> 100 µM (inactive)	> 100 µM (inactive)	> 100 µM (inactive)	> 100 µM (inactive)	> 100 µM (inactive)
COc1ccc(CNc2cc(OC)cc(OC)c2)cc1		39.4 µM (inactive)	> 87.1 µM (inactive)	> 56.6 µM (inactive)	> 86.1 µM (inactive)	68.9 µM (inactive)				35.3 µM (inactive)	> 88.5 µM (inactive)	64 µM (inactive)	29.7 µM (inactive)	60.8 µM (inactive)				61.1 µM (inactive)		30.3 µM (inactive)
O=C(O)[C@@H]1C[C@@H](O)CN1	> 100 µM (inactive)		> 100 µM (inactive)	> 100 µM (inactive)	> 100 µM (inactive)	> 100 µM (inactive)	> 100 µM (inactive)	> 100 µM (inactive)	> 100 µM (inactive)	> 100 µM (inactive)	> 100 µM (inactive)	> 100 µM (inactive)	> 100 µM (inactive)	> 100 µM (inactive)	> 100 µM (inactive)	> 100 µM (inactive)	> 100 µM (inactive)	> 100 µM (inactive)	> 100 µM (inactive)	> 100 µM (inactive)
Cc1cc(=O)oc2c(C)c(O)ccc12	> 100 µM (inactive)		> 100 µM (inactive)	> 100 µM (inactive)	> 100 µM (inactive)	> 100 µM (inactive)	> 100 µM (inactive)	> 100 µM (inactive)	> 100 µM (inactive)	> 100 µM (inactive)	> 100 µM (inactive)	> 100 µM (inactive)	22.4 µM (inactive)	> 100 µM (inactive)	35.4 µM (inactive)	> 100 µM (inactive)	> 100 µM (inactive)	> 100 µM (inactive)	> 100 µM (inactive)	> 100 µM (inactive)

From ChEMBL document CHEMBL1201862, “PubChem BioAssay data set” (2004)
